# Reference: publication PMC11079024, “Identification of a family of species-selective complex I inhibitors as potential anthelmintics” (Nature Communications, 2024)
# Values joined by “and” are separate entries in the source; they are usually repeats but may differ in a detail not shown here. Equal entries are not always repeated. Where two headings read alike, the source gives them in different places.
# Experiments:
# C. elegans = C. elegans chemical screens of RIKEN NPD libraries at 50 μM (hit identification in KCN survival and development/viability assays); assay type: cell-based, Caenorhabditis elegans
# HEK293 cells = conditions: read-out: HEK293 Cell Viability Assay LC50; 2 days exposure
# L1 wild-type C. elegans = conditions: caenorhabditis elegans
# adult H. polygyrus [1] = test: microbe, parasite or virus in culture; assay type: cell-based, Heligmosomoides polygyrus; conditions: anaerobic, 24 hours after treatment; for Percent Worms Affected: adult H. polygyrus, affected = score equal to or lower than 1.5; for # of Worms Affected: worms with score equal to or lower than 1.5; for Worm viability score, individual worms (Worm1-Worm20): scale from 0 (dead) to 3 (motile)
# Method: To investigate the impact of the eleven benzimidazole derivatives under anaerobic conditions, an anaerobic chamber with an integrated incubator (Coy Laboratory Products, USA) was used. The same procedure was followed as described for the aerobic drug screening in adult H. polygyrus, but the incubation took place within the anaerobic chamber (37 °C, 85% N2, 10% CO2, 5% H2). Benzimidazole derivatives were tested at a concentration of 10 µM. For scoring, the plates had to be removed from the anaerobic chamber. The whole experiment was performed two times i.e., two independent biological replicates.
# The activities of eleven benzimidazole derivatives were tested against adult H. polygyrus viability in vitro under aerobic (+, white boxplots) and anaerobic (–, coloured boxplots) conditions (see Methods). After 24-hour chemical treatment, worm viability was manually scored by an examiner using a scale from 0 (dead) to 3 (motile); DMSO was used as a negative control in both aerobic and anaerobic conditions; levamisole was used as a positive control in anaerobic conditions. The percentage of affected worms (i.e., worms with a score equal to or lower than 1.5) in each biological replicate is shown; data are from two biological replicates. Within each boxplot, black horizontal lines denote group medians, boxes span from the 25th to the 75th percentile of each group’s distribution, and whiskers extend to the maximum and minimum values. […]
# adult H. polygyrus [2] = assay type: cell-based, Heligmosomoides polygyrus; conditions: for Worm viability score, individual worms (Worm1-Worm20): scale from 0 (dead) to 3 (motile)
# Method: After either 24- or 72 h chemical treatment, worm viability was manually scored by an examiner using a scale from 0 (dead) to 3 (motile); DMSO was used as a negative control in both 24- and 72 h treatments. The percentage of affected worms (i.e., worms with a score equal to or lower than 1.5) in each biological replicate is shown; data are from two biological replicates. Within each boxplot, black horizontal lines denote group medians, boxes span from the 25th to the 75th percentile of each group’s distribution, and whiskers extend to the maximum and minimum values.
# The eleven benzimidazole derivatives were tested at a concentration of 10 µM under aerobic conditions against L3 and adult H. polygyrus.
# For the larval assay, mice feces were collected 2 weeks post-infection and eggs were isolated. The eggs were left on agar at room temperature in the dark for eight to 10 days to allow them to develop into L3. Next, 30–40 L3 were incubated (37 °C, 5% CO2) in the culture medium (RPMI 1640 medium + 1% pen./strep. + 5% amphotericin B) containing the derivatives in 96-well plate (Corning, USA) reaching a final volume of 250 µL for 24 h. For the adult drug screening assay, female NMRI mice were euthanized with CO2 and adult H. polygyrus were dissected out of the intestines. Subsequently, three worms were exposed to the culture medium (RPMI 1640 medium + 1% pen./strep. + 5% amphotericin B) with the derivatives (2 mL) in a 24-well plate (Corning, USA) for either 24 or 72 h. DMSO ( < 1%) served as a negative control in both assays. All conditions were tested in duplicates. Finally, 80 µL of hot water ( ~ 80 °C) for L3 and 500 µL of hot water (~80 °C) for adults were added to the wells to check for their viability under a microscope (Carl Zeiss, Germany). Larvae were categorized as being either alive or dead, depending on whether they moved or not. […] The whole experiment was performed two times i.e., two independent biological replicates for both life stages (L3s and adults) and exposure times (24 and 72 h).
# [3] = screened at 50 μM in triplicate, […], KCN = KCN survival assay, Dev. & Viability = development/viability assay
# [4] = screened at 50 μM in triplicate, hit = modified z-score < −3, KCN = KCN survival assay, Dev. & Viability = development/viability assay
# [5] = adult H. polygyrus, in vitro, aerobic, 24 hours, per biological replicate
# [6] = adult H. polygyrus, in vitro, aerobic, 72 hours, per biological replicate
smiles,measurement,setting,value
"COC(=O)Nc1nc2ccc(C(=O)c3cccs3)cc2[nH]1 [Nocodazole, reference compound]",Hit Type,C. elegans; [3],Dev. & Viability
CCc1ccc(-c2cc(C(=O)Nc3nccs3)c3ccccc3n2)cc1 [STK418118],Hit Type,C. elegans; [4],Dev. & Viability
same,CC50,HEK293 cells,> 50 µM
COc1ccc(N=c2cc(-c3ccc(OC)c(OC)c3)oc3ccccc23)c(OC)c1 [NPD6383],Hit Type,C. elegans; [4],KCN
same,LC50,L1 wild-type C. elegans,22.2 µM
Cc1nc2ccc(Br)cc2c2c1CC(C)O2 (racemic) [NP974],Hit Type,C. elegans; [4],KCN/Dev. & Viability
same,LC50,L1 wild-type C. elegans,19 µM
COc1ccccc1/C=C/C(=O)c1cc(C)ccc1O [NPD8582],Hit Type,C. elegans; [4],KCN
same,LC50,L1 wild-type C. elegans,14.7 µM
"CN[C@@H]1C[C@H]2O[C@@](C)([C@@H]1OC)n1c3ccccc3c3c4c(c5c6ccccc6n2c5c31)C(=O)NC4 [Staurosporine, reference compound]",Hit Type,C. elegans; [3],Dev. & Viability
CC(C)Cc1ccc(C(C)c2nc3ccccc3n2C)cc1 (racemic) [NPD87890],Percent Worms Affected,adult H. polygyrus [1]; replicate 1,100%
same,Percent Worms Affected,adult H. polygyrus [1]; replicate 2,100%
same,# of Worms Affected,adult H. polygyrus [1]; replicate 1,6
same,"Worm viability score, individual worms (Worm1-Worm20)",adult H. polygyrus [1]; replicate 1,0.5 (3×) and 0 (2×) and 1
same,# of Worms Affected,adult H. polygyrus [1]; replicate 2,6
same,"Worm viability score, individual worms (Worm1-Worm20)",adult H. polygyrus [1]; replicate 2,1.5 and 1 (5×)
same,"Worm viability score of individual worm, scale from 0 (dead) to 3 (motile)",adult H. polygyrus [2],1 and 0.5
same,Percent Worms Affected,"adult H. polygyrus [2]; adult H. polygyrus, aerobic, replicate 1, 24 hours after treatment, affected = score equal to or lower than 1.5",100%
same,# of Worms Affected,adult H. polygyrus [2]; [5],3 and 6
same,Percent Worms Affected (worms with a score equal to or lower than 1.5),adult H. polygyrus [2]; [5],50% and 100%
same,"Worm viability score of individual worm, scale from 0 (dead) to 3 (motile)","adult H. polygyrus [2]; adult H. polygyrus, in vitro, aerobic, 24 hours, single worms",2 (2×) and 2.5 and 1.5 and 1 and 1.25 (5×)
same,# of Worms Affected,adult H. polygyrus [2]; [6],5 and 6
same,Percent Worms Affected (worms with a score equal to or lower than 1.5),adult H. polygyrus [2]; [6],83% and 100%
same,"Worm viability score of individual worm, scale from 0 (dead) to 3 (motile)","adult H. polygyrus [2]; adult H. polygyrus, in vitro, aerobic, 72 hours, single worms",2 and 1.5 and 1 (2×) and 0.5 and 0.75 (3×)
same,# of Worms Affected,"adult H. polygyrus [2]; aerobic, replicate 1, 24 hours after treatment, worms with score equal to or lower than 1.5",6
same,"Worm viability score, individual worms (Worm1-Worm20)","adult H. polygyrus [2]; aerobic, replicate 1, 24 hours after treatment",1.25 (5×) and 1
same,# of Worms Affected,"adult H. polygyrus [2]; aerobic, replicate 2, 24 hours after treatment, worms with score equal to or lower than 1.5",3
same,"Worm viability score, individual worms (Worm1-Worm20)","adult H. polygyrus [2]; aerobic, replicate 2, 24 hours after treatment",2 (2×) and 2.5 and 1 (2×) and 1.5
O=C(CCCN1C(=O)c2cccc3cccc(c23)C1=O)N1CCN(Cc2ccc3c(c2)OCO3)CC1 [HTD0465],Hit Type,C. elegans; [4],Dev. & Viability
same,CC50,HEK293 cells,20.5 µM
Cc1ccc(N=c2cc(-c3ccc4c(c3)OCO4)oc3ccccc23)cc1C [NPD601],Hit Type,C. elegans; [4],KCN
same,LC50,L1 wild-type C. elegans,13.6 µM
"COc1cccc2c1cc([N+](=O)[O-])c1c(C(=O)O)cc3c(c12)OCO3 [Aristolochic acid, reference compound]",Hit Type,C. elegans,Dev. & Viability
Cc1nc2ccc(Br)cc2c2c1CC(C(C)(Cl)Br)O2 (racemic) [NPD10211],Hit Type,C. elegans; [4],KCN/Dev. & Viability
same,LC50,L1 wild-type C. elegans,14.5 µM
"CC[C@@]1(O)C(=O)OCc2c1cc1n(c2=O)Cc2cc3ccccc3nc2-1 [Camptothecin, reference compound]",Hit Type,C. elegans; [3],Dev. & Viability
"CCCC[C@@]1(OC(=O)CCC(=O)O)CC[C@]2(CC[C@H](C)[C@@H](C/C=C(C)/C=C/[C@H](O)[C@@H](C)/C=C/C(=O)O)O2)O[C@H]1/C=C/C(C)=C/C(=O)O [Reveromycin A, reference compound]",Hit Type,C. elegans; [3],Dev. & Viability
CC1(C#CCN2CCCCCC2)CCC2C(O1)c1ccccc1OC2(C)C (stereo not drawn) [NPD5219],Hit Type,C. elegans; [4],Dev. & Viability
same,CC50,HEK293 cells,14.8 µM
